# Source: ChEMBL document CHEMBL3808391, “Evolution of a New Class of VEGFR-2 Inhibitors from Scaffold Morphing and Redesign” (ACS Med Chem Lett, 2016)
# Biological target: Vascular endothelial growth factor receptor 2 (Homo sapiens, UniProt P35968)
# Experiment: Inhibition of KDR (unknown origin)
# Vascular endothelial growth factor receptor 2, sequence (P35968 whole entry): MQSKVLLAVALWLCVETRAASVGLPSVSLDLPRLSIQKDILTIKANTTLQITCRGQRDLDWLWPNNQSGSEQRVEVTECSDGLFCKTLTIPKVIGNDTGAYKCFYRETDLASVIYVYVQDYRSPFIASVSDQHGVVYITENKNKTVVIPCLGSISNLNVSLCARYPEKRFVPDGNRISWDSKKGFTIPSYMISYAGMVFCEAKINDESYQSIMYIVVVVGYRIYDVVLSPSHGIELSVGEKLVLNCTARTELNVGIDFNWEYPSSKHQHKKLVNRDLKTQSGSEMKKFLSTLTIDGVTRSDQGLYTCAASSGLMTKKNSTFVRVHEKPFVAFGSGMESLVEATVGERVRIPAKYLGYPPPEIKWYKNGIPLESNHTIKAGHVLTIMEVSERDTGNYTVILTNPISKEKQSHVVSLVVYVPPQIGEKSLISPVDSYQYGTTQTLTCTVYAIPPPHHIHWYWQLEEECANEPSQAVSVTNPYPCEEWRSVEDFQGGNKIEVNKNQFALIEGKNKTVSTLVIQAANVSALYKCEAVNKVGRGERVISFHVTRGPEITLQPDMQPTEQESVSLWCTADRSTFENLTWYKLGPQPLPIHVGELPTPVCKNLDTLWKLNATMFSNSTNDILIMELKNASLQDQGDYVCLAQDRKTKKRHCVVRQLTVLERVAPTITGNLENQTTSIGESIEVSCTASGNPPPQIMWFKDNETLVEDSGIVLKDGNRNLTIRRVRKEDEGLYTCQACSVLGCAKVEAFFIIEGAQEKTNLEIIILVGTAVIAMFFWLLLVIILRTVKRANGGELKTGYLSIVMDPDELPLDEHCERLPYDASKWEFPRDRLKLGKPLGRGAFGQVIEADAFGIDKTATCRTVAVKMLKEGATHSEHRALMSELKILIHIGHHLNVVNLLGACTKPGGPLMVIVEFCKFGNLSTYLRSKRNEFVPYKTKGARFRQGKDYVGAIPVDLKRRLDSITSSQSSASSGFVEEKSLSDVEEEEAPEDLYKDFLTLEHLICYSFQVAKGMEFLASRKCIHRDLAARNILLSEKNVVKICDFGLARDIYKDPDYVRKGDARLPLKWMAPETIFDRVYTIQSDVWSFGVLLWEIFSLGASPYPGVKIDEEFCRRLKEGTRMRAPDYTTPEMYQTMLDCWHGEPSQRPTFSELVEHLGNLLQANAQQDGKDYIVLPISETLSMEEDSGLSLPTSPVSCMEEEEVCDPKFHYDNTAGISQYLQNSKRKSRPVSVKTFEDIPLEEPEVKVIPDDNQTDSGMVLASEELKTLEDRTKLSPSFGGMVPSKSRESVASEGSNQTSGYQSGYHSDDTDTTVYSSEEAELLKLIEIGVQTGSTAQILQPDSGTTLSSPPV
row,SMILES,IC50 [µM]
1,Nc1cc(-c2ccc(NC(=O)Nc3cccc(C(F)(F)F)c3)cc2)on1,> 10
2,CC(C)(C)c1cc(NC(=O)Nc2ccc(-c3cc(N)no3)cc2)no1,> 10
